Measurements from article PMC10970644, “Molecular Pharmacology of Gelsemium Alkaloids on Inhibitory Receptors” (International Journal of Molecular Sciences, 2024).
Numbering of substitutions follows the chain as printed. Read-outs that look alike come from different tables or passages of the source.

How the values were obtained:
[1] = cited from earlier work
[2] = system: recombinant and native GABAARs; details: cited from earlier work
[3] = biological target: T1, α1GlyR F63A (Rattus norvegicus, UniProt P07727, F91A); assay type: cell-based
T1 construct: expressed in transfected cells; host or cells: HEK293 (ATCC CRL-1573)
T1 sequence (P07727 29-457 F91A): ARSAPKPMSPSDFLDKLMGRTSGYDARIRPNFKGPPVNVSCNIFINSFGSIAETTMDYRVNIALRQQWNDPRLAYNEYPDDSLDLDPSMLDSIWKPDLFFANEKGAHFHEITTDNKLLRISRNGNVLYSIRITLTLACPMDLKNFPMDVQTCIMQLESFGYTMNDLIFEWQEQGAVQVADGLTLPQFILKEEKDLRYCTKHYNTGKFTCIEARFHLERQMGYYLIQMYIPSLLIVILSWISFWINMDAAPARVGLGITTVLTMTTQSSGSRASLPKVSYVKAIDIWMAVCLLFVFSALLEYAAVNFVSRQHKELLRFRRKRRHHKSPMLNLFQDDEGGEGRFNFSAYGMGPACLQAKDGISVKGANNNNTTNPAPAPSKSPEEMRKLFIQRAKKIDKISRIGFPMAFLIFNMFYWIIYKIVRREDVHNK
Procedure: (§1) The cells were transfected with plasmids encoding the following proteins: (i). rat GlyR α (1, 2, 3) subunits alone or combined with rat β subunits (Uniprot Accession Numbers: Q546L7, P22771, P20236, P20781); and (ii). rat GABAAR α1 combined with rat β2 and γ2 subunits (Uniprot Accession Numbers: P62813, P63138, P18508). The EGFP expression was used as a marker of successful protein expression. The transfection was performed using Lipofectamine 2000 (Invitrogen, ThermoFisher, Carlsbad, CA, USA) using the fabricant protocol. The plasmids used to express GlyRs and GABAARs have been previously described. To track the successful expression of GlyR β subunits and the GABAA γ2 or β2 subunit, these proteins were subcloned in the pIRES2-EGFP vector. The transfection ratio to obtain β-containing GlyRs was 1:5 of α:β, while the expression of γ2-containing GABAA receptors was 1:2:5 of α:β:γ2 [14, 15]. Chimeric GlyRs were described in a previous report. Site directed mutagenesis was performed by Charm Gene Science Mutagenex LLC. (Cumming, GA, USA). All the constructs were checked by full-length sequencing (SNPSaurus, Eugene, OR, USA).
(§2) In brief, patch electrodes (3–4 MΩ) were pulled from borosilicate glasses in a PC-100 puller (Narishige, Tokyo, Japan); then, they were filled with an intracellular solution, which contained (in mM) 120 CsCl, 8 EGTA, 10 HEPES (pH 7.4), 4 MgCl2, 0.5 GTP, and 2 ATP. The extracellular solution contained (in mM) 140 NaCl, 5.4 KCl, 2.0 CaCl2, 1.0 MgCl2, 10 HEPES (pH 7.4), and 10 glucose. Whole-cell patch-clamp recordings were performed at −60 mV with an Axoclamp 200B (Molecular Devices, Sunnyvale, CA, USA) or with HEKA EPC-10 (HEKA Elektronik GmbH, Reutlingen, Germany) amplifiers. […] Brief (3–5 s) pulses of agonist together with alkaloids were applied to cells. Stock solutions of the alkaloids were prepared in high purity distilled water. Aliquots of these stock solutions were diluted in reservoirs containing extracellular solution. […] The concentration–response curve parameters for the alkaloid inhibition (IC50, nH, and the maximal current inhibition) were obtained from the fitted curve of normalized concentration–response data points to the equation Iagonist = Imax (agonist)nH/((agonist)nH + (EC50)nH). The IC50 curves are best-fit mean ± SE from pooled data. […] The inhibition constant (Ki) was calculated using the Cheng–Prusoff equation (Ki = IC50/((2 + ([Agonist]/EC50)^nH)^1/nH − 1). The concentration of agonist corresponds to the sub-saturating agonist concentration used to obtain the IC50 for each alkaloid on a given GlyR subtype.

[4] = biological target: T2, α1 GlyR (Rattus norvegicus, UniProt P07727); experiment: cell-based; assay type: cell-based
T2 construct: expressed in transfected cells; host or cells: HEK293 (ATCC CRL-1573)
T2 sequence (P07727 29-457): T1 sequence (P07727 29-457 F91A) with A63F
Procedure: as §1, §2

[5] = biological target: T3, α3 GlyR (Rattus norvegicus, UniProt P24524); details: cited from earlier work
T3 construct: expressed in transfected cells; host or cells: HEK293 (ATCC CRL-1573)
T3 sequence (P24524 34-464): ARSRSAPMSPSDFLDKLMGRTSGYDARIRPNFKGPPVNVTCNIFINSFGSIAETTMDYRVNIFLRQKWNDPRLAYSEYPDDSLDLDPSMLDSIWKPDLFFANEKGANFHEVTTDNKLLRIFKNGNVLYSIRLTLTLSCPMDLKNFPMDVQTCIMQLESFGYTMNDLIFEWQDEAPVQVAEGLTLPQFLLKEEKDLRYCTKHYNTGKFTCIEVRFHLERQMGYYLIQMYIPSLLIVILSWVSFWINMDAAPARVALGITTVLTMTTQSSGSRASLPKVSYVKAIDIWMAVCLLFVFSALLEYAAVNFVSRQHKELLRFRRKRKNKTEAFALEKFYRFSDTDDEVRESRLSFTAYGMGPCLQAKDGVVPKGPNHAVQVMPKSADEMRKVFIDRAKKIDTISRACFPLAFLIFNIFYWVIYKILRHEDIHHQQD

[6] = system: Spinal GlyRs; details: cited from earlier work
[7] = humans; cited from earlier work
[8] = biological target: T4, α2β GlyR (Rattus norvegicus, UniProt P20781+P22771); experiment: cell-based; assay type: cell-based
T4 construct: The cells were transfected with plasmids encoding the following proteins; expressed in transfected cells; host or cells: HEK293 (ATCC CRL-1573)
T4 sequence (P22771 28-452): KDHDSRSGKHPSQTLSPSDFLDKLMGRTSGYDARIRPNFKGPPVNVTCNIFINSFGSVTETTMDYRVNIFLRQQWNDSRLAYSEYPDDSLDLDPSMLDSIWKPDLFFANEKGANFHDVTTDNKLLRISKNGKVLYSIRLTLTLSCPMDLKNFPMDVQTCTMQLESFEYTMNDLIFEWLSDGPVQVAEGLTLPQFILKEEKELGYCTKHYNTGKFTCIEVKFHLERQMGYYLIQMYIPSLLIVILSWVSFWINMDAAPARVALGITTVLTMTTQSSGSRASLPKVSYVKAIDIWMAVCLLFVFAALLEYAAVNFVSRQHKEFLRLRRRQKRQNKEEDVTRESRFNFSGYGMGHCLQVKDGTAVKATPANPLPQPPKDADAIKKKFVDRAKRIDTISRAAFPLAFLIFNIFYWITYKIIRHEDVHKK
T4 sequence (P20781 23-496): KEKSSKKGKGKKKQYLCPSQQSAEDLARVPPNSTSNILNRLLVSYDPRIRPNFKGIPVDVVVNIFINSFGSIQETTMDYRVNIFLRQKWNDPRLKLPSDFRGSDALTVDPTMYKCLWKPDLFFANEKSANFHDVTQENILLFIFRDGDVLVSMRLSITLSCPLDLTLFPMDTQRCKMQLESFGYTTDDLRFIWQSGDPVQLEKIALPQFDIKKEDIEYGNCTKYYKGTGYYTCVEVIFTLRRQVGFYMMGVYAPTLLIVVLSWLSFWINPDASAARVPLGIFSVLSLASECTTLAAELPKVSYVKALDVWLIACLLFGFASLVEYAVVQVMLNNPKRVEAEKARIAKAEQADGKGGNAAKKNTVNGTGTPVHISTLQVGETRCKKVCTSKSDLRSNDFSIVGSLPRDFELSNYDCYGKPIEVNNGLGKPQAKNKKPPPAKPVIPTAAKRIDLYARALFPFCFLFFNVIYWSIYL
Procedure: as §1, §2

[9] = biological target: T3, α3 GlyR; experiment: cell-based; assay type: cell-based
Procedure: as §1, §2

[10] = Hill coefficient of inhibition curve
[11] = calculated using the Cheng–Prussof equation
[12] = percentage change of glycine-evoked current

## C=C[C@]12CN(C)[C@@H]3[C@H]4CO[C@H](C[C@H]41)[C@]1(C(=O)Nc4ccccc41)[C@@H]32 [gelsemine]
[1]
  residue in brain tissue after systemic application: detectable in brain tissue after 3 days
[2]
  IC50: 55 to 75 µM
[3]; F63A, gelsemine 10 μM or 200 μM, 2 mM glycine
  alkaloid sensitivity of glycine-evoked currents (in words): insensitive
[4]; wild-type, 10 μM gelsemine, 35 μM glycine
  effect on glycine-evoked currents (in words): potentiated
[5]
  modulation of currents (in words): concentration-dependent inhibition
[6]
  IC50: ~42 µM
[7]
  lethal plasma concentrations: 13 to 30 µg/mL

## NCC(=O)O [glycine, reference compound]
[8]; read-out: EC50 of agonist
  EC50: 105 ± 9 µM
[9]; read-out: EC50 of agonist
  EC50: 150 ± 10 µM

## C=C[C@@]12CN(C)[C@H]3C[C@]14C(=Nc1ccccc14)[C@H]1C[C@@H]2[C@@H]3CO1 [koumine]
[1]
  residue in brain tissue after systemic application: fully depleted after 1 day
[3]
  alkaloid sensitivity of glycine-evoked currents (in words): not exert detectable effects
[4]
  IC50: 31.5 ± 1.7 µM
[4]; [10]
  nH: 1.7 ± 0.1
[4]; [11]
  Ki: 53.1 ± 17.1 µM
[4]; [12]
  Maximal Modulation: −95.0 ± 1.5%
[8]
  IC50: 23.6 ± 8.3 µM
[8]; [10]
  nH: 1.3 ± 0.6
[8]; [11]
  Ki: 57.4 ± 4 µM
[9]
  IC50: 15.8 ± 4.6 µM
[9]; [10]
  nH: 0.9 ± 0.2
[9]; [11]
  Ki: 33.9 ± 15.8 µM
[9]; [12]
  Maximal Modulation: −87.3 ± 4.0%
